Holding throughout (experiment): NCI tumour cell line growth inhibition, 48 h
Assay [1] concerns CAKI-1.
Assay [2] deals with COLO 205.
Assay [3] has as its system DU-145.
For assay [4], the system named is HL-60.
For assay [5], the system named is IGROV-1.
Assay [6] concerns K562.
The test system of assay [7] is MCF7.
Assay [8] deals with MDA-MB-231.
In assay [9] the test system is MDA-MB-435.
The test system of assay [10] is MOLT-4.
Assay [11] relates to NCI-H226.
Assay [12] deals with NCI-H522.
The test system of assay [13] is OVCAR-3.
Assay [14] relates to RXF 393.
The test system of assay [15] is SF-268.
Assay [16] deals with SR.
In assay [17] the test system is UACC-257.
The test system of assay [18] is UO-31.
The test system of assay [19] is A498.
For assay [20], the system named is Malme-3M.

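Briefly, cells in 96-well plates were exposed to five compound concentrations for 48 h, and endpoints were estimated by linear interpolation. Abbreviation: GI50, concentration required for 50% inhibition of growth.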 Calls of active or inactive are those of the source. Rule as the data show it: active = GI50 up to about 1.1 µM and inactive = higher. Bounds are passed on as bounds.

For `COc1ccc(C2=CC(c3ccccc3)n3nnnc3N2)cc1` (configuration not stated), the GI50 in assay [1], in [2], in assay [3], in assay [4], in assay [5] and in assay [6] was > 100 µM (inactive) throughout. The GI50 in assay [7], in assay [8], in assay [9], in assay [10], in [11] and in assay [12] was > 100 µM (inactive) throughout. The GI50 in [13] is > 100 µM (inactive); in assay [14], > 100 µM (inactive); in [15], 74 µM (inactive); in assay [16], > 100 µM (inactive); in assay [17], > 100 µM (inactive); in [18], > 100 µM (inactive).

In the case of `CC1=NOC(C)(O)/C1=N/O` (configuration not stated), the GI50 in assay [19], in assay [1], in assay [2], in assay [3], in assay [4] and in assay [5] was > 100 µM (inactive) throughout. For the same compound, the GI50 in [6], in assay [7], in [8], in [9], in [10] and in assay [20] was > 100 µM (inactive) in each case. The GI50 in [11], in [12], in assay [13], in [14], in [15] and in [17] was > 100 µM (inactive) throughout. In addition, the GI50 in [18] is > 100 µM (inactive).

With `CC(NC(=O)NC(C)(C)C)NC(=O)C(N)CC(=O)O` (configuration not stated), the GI50 in [19], in [1], in assay [2], in [3], in [5] and in [6] was > 100 µM (inactive) in each case. Moreover, the GI50 in assay [7], in assay [8], in assay [9], in assay [10], in assay [20] and in [11] was > 100 µM (inactive) throughout. Besides, the GI50 in [12], in assay [13], in [14], in assay [15], in assay [17] and in assay [18] was > 100 µM (inactive) each time.

Take `CCOC(=O)C1CC(O)C(=O)N1C` (configuration not stated): the GI50 in [1], in assay [2], in [3], in [4], in assay [5] and in assay [7] was > 100 µM (inactive) throughout. Moreover, the GI50 in assay [8], in assay [9], in [10], in assay [11], in assay [13] and in [14] was > 100 µM (inactive) throughout. The GI50 in assay [16], in assay [17] and in [18] was > 100 µM (inactive) throughout.

With `O=C(Nc1nc(C23CC4CC(CC(C4)C2)C3)cs1)c1cc2ccc(O)cc2oc1=O`, the GI50 in assay [19] is 10.7 µM (inactive); in [1] it was 19.6 µM (inactive); in assay [2], 5.36 µM (inactive); in [3] it was 18.3 µM (inactive); in assay [4] it was 10.3 µM (inactive); in assay [5] it was 7.41 µM (inactive). Moreover, the GI50 in assay [6] was 4.88 µM (inactive); in assay [7], 14.1 µM (inactive); in assay [8], 6.04 µM (inactive); in assay [9], 8.38 µM (inactive); in assay [10], 5.9 µM (inactive); in assay [20], 12 µM (inactive). Also, the GI50 in [11] was 18 µM (inactive); in assay [12] it was 10.2 µM (inactive); in assay [13], 13.8 µM (inactive); in assay [14] it was 16.4 µM (inactive); in assay [15], 16.9 µM (inactive); in assay [17] it was 15.6 µM (inactive). For the same compound, the GI50 in assay [18] is 7.36 µM (inactive).

Turning to `Cc1ccc(C2=Nc3c(N)nc(N)nc3NC(c3ccccc3)C2)cc1` (configuration not stated), the GI50 in assay [1] was 14 µM (inactive); in [3], 14.7 µM (inactive); in [5], 5.36 µM (inactive); in assay [6], 3.51 µM (inactive); in assay [7], 8.77 µM (inactive); in assay [8], 11.8 µM (inactive). For the same compound, the GI50 in assay [9] is 1.92 µM (inactive); in assay [10], 7.43 µM (inactive); in [20] it was 9.66 µM (inactive); in assay [11], 14.4 µM (inactive); in assay [12], 3.13 µM (inactive); in assay [13], 11.5 µM (inactive). The GI50 in [14] was 7.36 µM (inactive); in assay [15], 14.3 µM (inactive); in assay [16], 3.56 µM (inactive); in assay [17], 13.5 µM (inactive); in assay [18] it was 11.5 µM (inactive).

In the case of `CC(C)c1cc2c(c(O)c1O)[C@@]1(C(=O)O)CCCC(C)(C)[C@@H]1CC2` [CARNOSIC ACID], the GI50 in [1] was 27.8 µM (inactive); in assay [2], 24.2 µM (inactive); in assay [3], 25.1 µM (inactive); in [5] it was 19.4 µM (inactive); in [6] it was 28.4 µM (inactive); in assay [7] it was 18.9 µM (inactive). Further, the GI50 in assay [8] was 31.8 µM (inactive); in [9], 16.3 µM (inactive); in [10] it was 11.8 µM (inactive); in assay [11], 10.4 µM (inactive); in assay [12] it was 13 µM (inactive); in assay [13] it was 22.7 µM (inactive). In addition, the GI50 in assay [14] is 19.6 µM (inactive); in [15], 18.8 µM (inactive); in assay [16], 5.33 µM (inactive); in [17] it was 14.6 µM (inactive); in assay [18] it was 14.4 µM (inactive).

For the compound `C=CCNc1ccc(C)cc1`, the GI50 was 3.82 µM (inactive) in [19]; > 100 µM (inactive) in [2]; > 100 µM (inactive) in assay [3]; > 100 µM (inactive) in assay [6]; > 100 µM (inactive) in assay [7]; > 100 µM (inactive) in [8]. Besides, the GI50 in [9], in assay [10], in [11], in assay [12], in [13] and in [14] was > 100 µM (inactive) throughout. The GI50 in assay [15] is > 100 µM (inactive); in [16] it was > 100 µM (inactive); in [17] it was > 100 µM (inactive); in assay [18], 35 µM (inactive).

On to `CCOC(=O)C1(C(=O)OCC)COS(=O)OC1`, for which the GI50 in assay [19] is > 100 µM (inactive); in assay [2] it was 23.8 µM (inactive); in [3] it was > 100 µM (inactive); in [6], 21.4 µM (inactive); in [7] it was 19.1 µM (inactive); in assay [8], 16.9 µM (inactive). Moreover, the GI50 is 36.7 µM (inactive) in assay [9]; 16.4 µM (inactive) in [10]; 20.8 µM (inactive) in assay [11]; 0.604 µM (active) in [12]; 19.9 µM (inactive) in assay [13]; 18.3 µM (inactive) in assay [14]. Besides, the GI50 in assay [15] is > 10 µM (inactive); in assay [16], 17.8 µM (inactive); in [17] it was > 100 µM (inactive); in assay [18] it was 70.3 µM (inactive).

For the compound `CC(=O)CCC[C@H](C)[C@@H](O)[C@@H]1O[C@H]([C@@]2(C)CCC(=O)O2)C[C@H]1C(=O)O`, the GI50 in assay [1], in assay [2], in assay [3], in [5], in assay [6] and in assay [7] was > 100 µM (inactive) throughout. Also, the GI50 in assay [8], in assay [9], in [10], in assay [11], in [12] and in [13] was > 100 µM (inactive) in each case. The GI50 was > 100 µM (inactive) in [14]; > 100 µM (inactive) in [15]; 37.2 µM (inactive) in assay [16]; > 100 µM (inactive) in assay [17]; > 100 µM (inactive) in [18].

Turning to `O=[N+]([O-])C(Cl)=C/C(=C(\Cl)SCc1ccccc1)[N+](=O)[O-]`, the GI50 is 27 µM (inactive) in [19]; 18.1 µM (inactive) in [1]; 17.8 µM (inactive) in assay [2]; 31.4 µM (inactive) in [3]; 5.62 µM (inactive) in [4]; 28.3 µM (inactive) in [5]. The GI50 was 13.3 µM (inactive) in [6]; 38.2 µM (inactive) in [7]; 27.7 µM (inactive) in assay [8]; 18.5 µM (inactive) in assay [9]; 17.7 µM (inactive) in assay [10]; 20.2 µM (inactive) in assay [20]. Also, the GI50 in assay [11] was 26.8 µM (inactive); in assay [12], 20.7 µM (inactive); in assay [13], 15.5 µM (inactive); in assay [14] it was 10.6 µM (inactive); in assay [15], 28.6 µM (inactive); in assay [17], 29 µM (inactive). For the same compound, in [18], the GI50 was 20.5 µM (inactive).

Take `CCOC(=O)CCCOc1cc(-c2ccccc2F)nc2cc3c(cc12)OCO3`: the GI50 in assay [1] is > 100 µM (inactive); in assay [2] it was > 100 µM (inactive); in assay [3], > 100 µM (inactive); in [5] it was 24.6 µM (inactive); in assay [7], > 100 µM (inactive); in assay [8], > 100 µM (inactive). Moreover, the GI50 was 53.6 µM (inactive) in assay [9]; 27.3 µM (inactive) in assay [10]; 74.1 µM (inactive) in assay [20]; 32 µM (inactive) in assay [16]; 70.3 µM (inactive) in assay [17].

The record behind these values is ChEMBL document CHEMBL1201862, “PubChem BioAssay data set” (2004).
